From ChEMBL document CHEMBL1129998, “Pharmacological options in the treatment of benign prostatic hyperplasia” (J Med Chem, 1997)
One block for each molecule: values may come before it.

Assays:
[1] = biological target: T1, 3-oxo-5-alpha-steroid 4-dehydrogenase 2 (Homo sapiens, UniProt P31213); assay: Inhibitory concentration on human 5-alpha reductase 2 (transfected SW-13 cells)
T1 sequence (P31213 whole entry): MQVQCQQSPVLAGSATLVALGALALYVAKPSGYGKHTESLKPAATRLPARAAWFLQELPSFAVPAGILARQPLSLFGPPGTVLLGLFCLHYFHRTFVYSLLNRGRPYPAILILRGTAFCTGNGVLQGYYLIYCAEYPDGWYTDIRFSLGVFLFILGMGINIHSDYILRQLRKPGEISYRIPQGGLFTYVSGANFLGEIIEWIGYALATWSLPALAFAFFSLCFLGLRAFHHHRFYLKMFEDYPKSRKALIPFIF

[2] = biological target: T1, 3-oxo-5-alpha-steroid 4-dehydrogenase 2; assay: Binding affinity for human 5-alpha reductase 2 isozyme
[3] = biological target: T2, 3-oxo-5-alpha-steroid 4-dehydrogenase 1 (Homo sapiens, UniProt P18405); assay: Binding affinity for human 5 alpha reductase 1 isozyme
T2 sequence (P18405 whole entry): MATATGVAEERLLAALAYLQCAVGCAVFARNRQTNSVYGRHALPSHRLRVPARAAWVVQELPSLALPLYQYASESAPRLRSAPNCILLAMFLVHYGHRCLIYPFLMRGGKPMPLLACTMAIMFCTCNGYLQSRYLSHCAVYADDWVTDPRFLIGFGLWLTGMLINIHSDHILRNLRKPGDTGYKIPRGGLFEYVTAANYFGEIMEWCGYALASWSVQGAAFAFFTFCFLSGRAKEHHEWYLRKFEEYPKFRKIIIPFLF

[4] = Dose (iv) for 20% reduction of mean blood pressure in rat (ID20) with the dose for 50% inhibition of norepinephrine-mediated contraction of proximal urethra (ID50) in cat; type: functional
[5] = biological target: T2, 3-oxo-5-alpha-steroid 4-dehydrogenase 1; assay: Inhibitory concentration on human 5-alpha reductase 1 isozyme
[6] = biological target: T3, Alpha-1A adrenergic receptor (Rattus norvegicus, UniProt P43140); assay: Binding affinity was tested on CEC-pretreated rat hippocampus Alpha-1A adrenergic receptor; type: tissue-based
T3 sequence (P43140 whole entry): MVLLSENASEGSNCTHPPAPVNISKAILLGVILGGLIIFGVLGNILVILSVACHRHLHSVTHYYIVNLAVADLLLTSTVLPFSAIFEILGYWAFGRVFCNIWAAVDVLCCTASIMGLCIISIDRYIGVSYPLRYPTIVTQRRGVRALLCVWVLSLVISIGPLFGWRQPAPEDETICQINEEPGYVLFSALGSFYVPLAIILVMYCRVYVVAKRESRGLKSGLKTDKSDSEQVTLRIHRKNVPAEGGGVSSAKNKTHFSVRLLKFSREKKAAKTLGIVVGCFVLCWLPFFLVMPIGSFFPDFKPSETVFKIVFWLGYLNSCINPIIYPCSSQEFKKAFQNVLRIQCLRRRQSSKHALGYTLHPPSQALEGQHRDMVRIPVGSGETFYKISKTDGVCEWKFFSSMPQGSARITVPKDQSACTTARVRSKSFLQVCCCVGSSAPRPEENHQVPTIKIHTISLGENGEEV

[7] = In vivo dose (iv) for 50% inhibition of norepinephrine-mediated contraction of proximal urethra (ID50) with the dose (iv) for 25% reduction in systolic blood pressure (ED25) in anesthetized dogs; type: functional
[8] = biological target: T4, Alpha-1B adrenergic receptor (Rattus norvegicus, UniProt P15823); assay: Binding affinity was tested on CEC-pretreated rat liver Alpha-1B adrenergic receptor
T4 sequence (P15823 whole entry): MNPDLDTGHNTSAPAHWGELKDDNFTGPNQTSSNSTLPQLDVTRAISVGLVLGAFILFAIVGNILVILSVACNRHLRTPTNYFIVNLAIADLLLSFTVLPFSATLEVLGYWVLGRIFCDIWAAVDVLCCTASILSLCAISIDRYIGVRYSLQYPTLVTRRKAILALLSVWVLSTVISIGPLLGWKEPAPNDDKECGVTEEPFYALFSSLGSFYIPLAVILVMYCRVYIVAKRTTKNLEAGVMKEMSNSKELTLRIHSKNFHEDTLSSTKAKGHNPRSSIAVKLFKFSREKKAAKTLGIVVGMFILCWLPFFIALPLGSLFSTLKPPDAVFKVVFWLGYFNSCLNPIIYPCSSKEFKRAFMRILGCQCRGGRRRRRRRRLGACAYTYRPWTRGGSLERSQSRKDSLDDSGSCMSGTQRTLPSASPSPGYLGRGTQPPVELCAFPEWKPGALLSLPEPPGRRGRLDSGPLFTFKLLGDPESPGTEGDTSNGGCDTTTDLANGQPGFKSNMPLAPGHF

[9] = biological target: T5, 3-oxo-5-alpha-steroid 4-dehydrogenase 1 (Rattus norvegicus, UniProt P24008); assay: (§1) Binding affinity on rat 5-alpha reductase-1 isozyme
T5 sequence (P24008 whole entry): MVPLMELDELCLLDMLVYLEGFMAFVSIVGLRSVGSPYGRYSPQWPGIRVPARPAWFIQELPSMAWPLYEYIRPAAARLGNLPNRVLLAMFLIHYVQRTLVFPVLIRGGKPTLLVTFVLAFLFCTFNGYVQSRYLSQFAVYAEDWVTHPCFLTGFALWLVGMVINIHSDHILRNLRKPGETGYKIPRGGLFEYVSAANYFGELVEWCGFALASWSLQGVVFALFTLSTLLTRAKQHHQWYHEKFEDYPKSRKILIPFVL

[10] = biological target: T6, 3-oxo-5-alpha-steroid 4-dehydrogenase 2 (Rattus norvegicus, UniProt P31214); assay: Binding affinity on rat 5-alpha reductase-2 isozyme
T6 sequence (P31214 whole entry): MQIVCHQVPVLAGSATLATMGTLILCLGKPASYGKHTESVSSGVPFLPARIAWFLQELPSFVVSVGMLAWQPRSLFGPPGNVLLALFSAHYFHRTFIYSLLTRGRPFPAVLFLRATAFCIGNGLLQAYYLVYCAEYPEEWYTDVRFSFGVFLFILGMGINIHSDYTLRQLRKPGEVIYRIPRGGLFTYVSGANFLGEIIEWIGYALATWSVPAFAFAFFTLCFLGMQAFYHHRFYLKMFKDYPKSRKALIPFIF

[11] = biological target: T7, Steroid 5-alpha-reductase (Rattus norvegicus, UniProt P24008+P31214); assay: as §1; type: protein assay
T7 sequence (P24008 whole entry): T5 sequence (P24008 whole entry)
T7 sequence (P31214 whole entry): T6 sequence (P31214 whole entry)

Structure (SMILES): CC(C)(C)NC(=O)[C@H]1CCC2C3CCC4=C(C#N)C(=O)CC[C@]4(C)C3CC[C@@]21C (stereo partly drawn)
IC50 [1]: 2.9 nM

Structure (SMILES): COc1ccccc1N1CCN(CCCNc2nccc(C(N)=O)n2)CC1
Ratio [4]: 31

Structure (SMILES): NC(=O)c1ccnc(NCCCN2CCN(c3cccc(Cl)c3)CC2)n1
Ratio [4]: 18

Structure (SMILES): COc1ccccc1N1CCN(CCCNC(=O)c2ccccc2OCc2ccccc2)CC1
Ratio [7]: 16

Now from value to molecule, other results behind:

IC50 [2]: < 0.1 nM
Ki [3]: 0.2 nM
Structure (SMILES): CC1=C2NCC3C(CC[C@@]4(C)C3CC[C@@H]4C(=O)Nc3cc(C(F)(F)F)ccc3C(F)(F)F)[C@@]2(C)CCC1=O (stereo partly drawn)

Ki [5]: > 2500 nM
Structure (SMILES): O=C(O)c1cc2cc(OCc3ccccc3)ccc2[nH]1

IC50 [6]: 14 nM
IC50 [8]: 79 nM
Structure (SMILES): COc1ccccc1N1CCN(CCNC(=O)c2cccc3c(=O)c(C)c(-c4ccccc4)oc23)CC1
Ratio [7]: 14

Ki [9]: 8 nM
Ki [10]: 10000 nM
Structure (SMILES): CN1C(=O)CC[C@@H]2c3ccc(Cl)cc3CC[C@H]21 [BEXLOSTERIDE]

Ki [11]: 1200 nM
Structure (SMILES): C[C@]12CCC(C(=O)O)=CC1=CCc1cc(Cl)ccc12
